{
  "source": "patent US8916499B2",
  "about": "“Herbicidal compositions comprising 4-amino-3-chloro-5-fluoro-6-(4-chloro-2-fluoro-3-methoxyphenyl) pyridine-2-carboxylic acid or a derivative thereof and a protoporphyrinogen oxidase inhibitor” (Dow AgroSciences LLC, priority 2012, dated 2014)",
  "key": {"SETVI": {"system": "SETVI", "assay": "Pre-emergence soil-applied weed control, greenhouse (Example IV)", "assay_type": "in vivo, Setaria viridis (L.) Beauv.", "settings": "105 g ai/ha alone", "excerpt": "(§1) Seeds or nutlets of the desired test plant species were planted in a soil matrix prepared by mixing a loam soil (32 percent silt, 23 percent clay, and 45 percent sand, with a pH of about 6.5 and an organic matter content of about 1.9 percent) and calcareous grit in an 80 to 20 ratio. The soil matrix was contained in plastic pots with a volume of 1 quart and a surface area of 83.6 square centimeters (cm^2).\n(§2) Treatments consisted of the benzyl ester of 4-amino-3-chloro-5-fluoro-6-(4-chloro-2-fluoro-3-methoxy-phenyl)pyridine-2-carboxylic acid (compound A) formulated as an SC (suspension concentrate) and various herbicidal components alone and in combination. Forms of compound A were applied on an acid equivalent basis.\n(§3) Other herbicidal components were applied on an acid equivalent or active ingredient basis and included the protoporphyrinogen oxidase (PPO)-inhibiting herbicides, flumioxazin formulated as Payload® and oxadiazon formulated as Ronstar® 50W.\n(§4) Treatment requirements were calculated based upon the rates being tested, the concentration of active ingredient or acid equivalent in the formulation, and a 12 mL application volume at a rate of 187 L/ha.\nFor treatments comprised of formulated compounds, measured amounts of compounds were placed individually in 25 mL glass vials and diluted in a volume of 1.25% (v/v) Agri-Dex® crop oil concentrate (COC) to obtain 12× stock solutions. […] Application solutions were prepared by adding an appropriate amount of each stock solution (e.g., 1 mL) and diluted to the appropriate final concentrations with the addition of 10 mL of an aqueous mixture of 1.25% (v/v) COC so that the final spray solutions contained 1.25% (v/v) COC. […]\nThe treated and control pots were placed in a greenhouse and top watered as needed. […] After approximately 4 weeks, the condition of the test plants as compared with that of the untreated plants was determined visually and scored on a scale of 0 to 100 percent where 0 corresponds to no injury or growth inhibition and 100 corresponds to complete kill. […]"}, "IPOHE": {"system": "IPOHE", "assay": "Pre-emergence soil-applied weed control, greenhouse (Example IV)", "assay_type": "in vivo, Ipomoea hederacea (L.) Jacq.", "excerpt": "as §1, §2, §3, §4\n(§5) For treatments comprised of formulated compounds, measured amounts of compounds were placed individually in 25 mL glass vials and diluted in a volume of 1.25% (v/v) Agri-Dex® crop oil concentrate (COC) to obtain 12× stock solutions. […] Application solutions were prepared by adding an appropriate amount of each stock solution (e.g., 1 mL) and diluted to the appropriate final concentrations with the addition of 10 mL of an aqueous mixture of 1.25% (v/v) COC so that the final spray solutions contained 1.25% (v/v) COC.\n(§6) All stock solutions and applications solutions were visually inspected for compound compatibility prior to application. Spray solutions were applied to the soil with an overhead Mandel track sprayer equipped with a 8002E nozzles calibrated to deliver 187 L/ha over an application area of 0.503 m^2 at a spray height of 18 inches (46 cm) above average pot height. Control pots were sprayed in the same manner with the solvent blank.\n(§7) The treated and control pots were placed in a greenhouse and top watered as needed. When required to ensure good germination and healthy plants, a fungicide treatment and/or other chemical or physical treatment was applied. The pots were maintained in a greenhouse with an approximate 14 hr photoperiod which was maintained at about 29° C. during the day and 26° C. during the night. Nutrients (Peters® Excel 15-5-15 5-Ca 2-Mg) were applied in the irrigation solution as needed and water was added on a regular basis. Supplemental lighting was provided with overhead metal halide 1000-Watt lamps as necessary. After approximately 4 weeks, the condition of the test plants as compared with that of the untreated plants was determined visually and scored on a scale of 0 to 100 percent where 0 corresponds to no injury or growth inhibition and 100 corresponds to complete kill.\nColby's equation was used to determine the herbicidal effects expected from the mixtures (Colby, S. R. 1967. Calculation of the synergistic and antagonistic response of herbicide combinations. Weeds 15:20-22.).\nThe following equation was used to calculate the expected activity of mixtures containing two active ingredients, A and B: Expected=A+B−(A×B/100)"}, "XANST": {"system": "XANST", "assay": "Pre-emergence soil-applied weed control, greenhouse (Example IV)", "assay_type": "in vivo, Xanthium strumarium L.", "excerpt": "as §1, §2, §3, §4, §5, §6\nas §7, with “Nutrients (Peters® Excel 15-5-15 5-Ca 2-Mg) were applied in the irrigation solution as needed and water was added on a regular basis. Supplemental lighting was provided with overhead metal halide 1000-Watt lamps as necessary.” left out, “kill. […]” for “kill.”"}, "ECHCG": {"system": "ECHCG", "assay": "In-water applied weed control, transplanted paddy rice, greenhouse (Example II)", "assay_type": "in vivo, Echinochloa crus-galli (L.) P. Beauv."}, "ECHCO": {"system": "ECHCO", "assay": "Postemergence foliar-applied weed control, direct seeded rice, greenhouse (Example I)", "assay_type": "in vivo, Echinochloa colona (L.) Link", "settings": "g ae/ha Compound A Benzyl Ester+g ai/ha saflufenacil: r14 4.38+0, r15 8.75+0, r16 0+10, r17 0+20, r18 4.38+10, r19 8.75+10, r20 4.38+20, r21 8.75+20"}, "ECHOR": {"system": "ECHOR", "assay": "In-water applied weed control, transplanted paddy rice, greenhouse (Example II)", "assay_type": "in vivo, Echinochloa oryzoides (Ard.) Fritsch"}, "ISCRU": {"system": "ISCRU", "assay": "Postemergence foliar-applied weed control, direct seeded rice, greenhouse (Example I)", "assay_type": "in vivo, Ischaemum rugosum Salisb.", "settings": "g ae/ha Compound A Benzyl Ester+g ai/ha saflufenacil: r49 8+0, r50 16+0, r51 0+10, r52 0+20, r53 8+10, r54 16+10, r55 8+20, r56 16+20"}, "LEFCH [1]": {"system": "LEFCH", "assay": "In-water applied weed control, transplanted paddy rice, greenhouse (Example II)", "assay_type": "in vivo, Leptochloa chinensis (L.) Nees"}, "CYPRO": {"system": "CYPRO", "assay": "In-water applied weed control, transplanted paddy rice, greenhouse (Example II)", "assay_type": "in vivo, Cyperus rotundus L.", "settings": "10 g ai/ha alone"}, "LEFCH [2]": {"system": "LEFCH", "assay": "Postemergence foliar-applied weed control, direct seeded rice, greenhouse (Example I)", "assay_type": "in vivo, Leptochloa chinensis (L.) Nees"}},
  "data": [
    {"smiles": "C#CCN1C(=O)COc2cc(F)c(N3C(=O)C4=C(CCCC4)C3=O)cc21", "note": "[Fumioxazin]", "values": [
      {"measurement": "Visual Weed Control (%) - 28 DAA SETVI Obs", "setting": "SETVI", "result": 73, "unit": "%"},
      {"measurement": "Visual Weed Control (%) - 28 DAA IPOHE Obs", "setting": "IPOHE; 105 g ai/ha alone", "result": 70, "unit": "%"},
      {"measurement": "Visual Weed Control (%) - 28 DAA IPOHE Obs", "setting": "IPOHE; 210 g ai/ha alone", "result": 70, "unit": "%"},
      {"measurement": "Visual Weed Control (%) - 28 DAA IPOHE Obs", "setting": "IPOHE; 420 g ai/ha alone", "result": 90, "unit": "%"},
      {"measurement": "Visual Weed Control (%) - 29 DAA XANST Obs", "setting": "XANST; 105 g ai/ha alone", "result": 18, "unit": "%"},
      {"measurement": "Visual Weed Control (%) - 29 DAA XANST Obs", "setting": "XANST; 210 g ai/ha alone", "result": 48, "unit": "%"}
    ]},
    {"smiles": "CC(C)N(C)S(=O)(=O)NC(=O)c1cc(-n2c(=O)cc(C(F)(F)F)n(C)c2=O)c(F)cc1Cl", "note": "[Saflufenacil, 2-chloro-5-[3,6-dihydro-3-methyl-2,6-dioxo-4-(trifluoromethyl)-1(2H)-pyrimidinyl]-4-fluoro-N-[[methyl(1-methylethyl)amino]sulfonyl]benzamide, reference compound]", "values": [
      {"measurement": "Visual Weed Control (%) - 20 DAA ECHCG Obs", "setting": "ECHCG; 10 g ai/ha alone", "result": 0, "unit": "%"},
      {"measurement": "Visual Weed Control (%) - 20 DAA ECHCG Obs", "setting": "ECHCG; 20 g ai/ha alone", "result": 10, "unit": "%"},
      {"measurement": "Visual Weed Control (%) - 20 DAA ECHCO Obs", "setting": "ECHCO", "result": 40, "unit": "%"},
      {"measurement": "Visual Weed Control (%) - 20 DAA ECHOR Obs", "setting": "ECHOR; 10 g ai/ha alone", "result": 0, "unit": "%"},
      {"measurement": "Visual Weed Control (%) - 20 DAA ECHOR Obs", "setting": "ECHOR; 20 g ai/ha alone", "result": 0, "unit": "%"},
      {"measurement": "Visual Weed Control (%) - 21 DAA ISCRU Obs", "setting": "ISCRU", "result": 0, "unit": "%"},
      {"measurement": "Visual Weed Control (%) - 20 DAA LEFCH Obs", "setting": "LEFCH [1]; 10 g ai/ha alone", "result": 0, "unit": "%"},
      {"measurement": "Visual Weed Control (%) - 20 DAA LEFCH Obs", "setting": "LEFCH [1]; 20 g ai/ha alone", "result": 0, "unit": "%"},
      {"measurement": "Visual Weed Control (%) - 21 DAA LEFCH Obs", "setting": "LEFCH [1]; 40 g ai/ha alone", "result": 5, "unit": "%"},
      {"measurement": "Visual Weed Control (%) - 20 DAA CYPRO Obs", "setting": "CYPRO", "result": 0, "unit": "%"},
      {"measurement": "Visual Weed Control (%) - 20 DAA LEFCH Obs", "setting": "LEFCH [2]; g ae/ha Compound A Acid+g ai/ha saflufenacil: r11 4.38+0, r12 8.75+0, r13 17.5+0, r14 0+5, r15 4.38+5, r16 8.75+5, r17 17.5+5", "result": 0, "unit": "%"},
      {"measurement": "Visual Weed Control (%) - 20 DAA LEFCH Obs", "setting": "LEFCH [2]; g ae/ha Compound A Benzyl Ester+g ai/ha saflufenacil: r26 8.75+0, r27 17.5+0, r28 0+5, r29 0+10, r30 8.75+5, r31 17.5+5, r32 8.75+10, r33 17.5+10", "result": 0, "unit": "%"}
    ]}
  ]
}
